Data: patent publication US20170298055A1, “sGC STIMULATORS” (IRONWOOD PHARMACEUTICALS, INC., priority 2014, published 2017)
Where two headings read alike, the source gives them in different places.

Columns and labels:
[1] = tested on: lambs with acute pulmonary hypertension; details: cited from earlier work; for effect on mean arterial pressure / pulmonary vasodilation / transpulmonary cGMP release / systemic arterial oxygenation: inhaled microparticles, awake lambs; for effect on mean arterial pressure / pulmonary vasodilation / transpulmonary cGMP release: U-46619 infusion
[2] = target: T1, soluble guanylate cyclase (sGC) (Homo sapiens, UniProt Q02108+Q02153); assay: sGC-HEK-cGMP assay, LC/MS detection, with SNP incubation (Example 2A); assay type: cell-based; details: HEK293 cells, in the presence of 10 μM SNP
T1 construct: endogenously expressing soluble guanylate cyclase (sGC); endogenous in cells; host or cells: HEK293
T1 sequence (Q02153 1-619): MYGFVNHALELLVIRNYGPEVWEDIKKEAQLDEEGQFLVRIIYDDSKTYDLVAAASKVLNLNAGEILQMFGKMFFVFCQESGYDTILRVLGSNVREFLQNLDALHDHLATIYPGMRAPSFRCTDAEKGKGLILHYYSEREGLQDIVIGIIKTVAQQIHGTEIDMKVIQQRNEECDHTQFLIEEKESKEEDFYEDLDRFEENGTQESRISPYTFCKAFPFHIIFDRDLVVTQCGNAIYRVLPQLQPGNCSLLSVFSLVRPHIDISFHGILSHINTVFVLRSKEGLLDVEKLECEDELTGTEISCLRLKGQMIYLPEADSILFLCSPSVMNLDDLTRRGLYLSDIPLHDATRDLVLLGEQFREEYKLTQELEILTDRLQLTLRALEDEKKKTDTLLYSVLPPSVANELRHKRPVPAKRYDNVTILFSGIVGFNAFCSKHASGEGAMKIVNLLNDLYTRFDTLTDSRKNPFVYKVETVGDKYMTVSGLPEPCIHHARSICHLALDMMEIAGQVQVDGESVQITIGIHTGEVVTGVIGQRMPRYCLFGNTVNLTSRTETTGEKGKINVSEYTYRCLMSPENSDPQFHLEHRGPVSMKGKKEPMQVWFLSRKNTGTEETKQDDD
T1 sequence (Q02108 1-690): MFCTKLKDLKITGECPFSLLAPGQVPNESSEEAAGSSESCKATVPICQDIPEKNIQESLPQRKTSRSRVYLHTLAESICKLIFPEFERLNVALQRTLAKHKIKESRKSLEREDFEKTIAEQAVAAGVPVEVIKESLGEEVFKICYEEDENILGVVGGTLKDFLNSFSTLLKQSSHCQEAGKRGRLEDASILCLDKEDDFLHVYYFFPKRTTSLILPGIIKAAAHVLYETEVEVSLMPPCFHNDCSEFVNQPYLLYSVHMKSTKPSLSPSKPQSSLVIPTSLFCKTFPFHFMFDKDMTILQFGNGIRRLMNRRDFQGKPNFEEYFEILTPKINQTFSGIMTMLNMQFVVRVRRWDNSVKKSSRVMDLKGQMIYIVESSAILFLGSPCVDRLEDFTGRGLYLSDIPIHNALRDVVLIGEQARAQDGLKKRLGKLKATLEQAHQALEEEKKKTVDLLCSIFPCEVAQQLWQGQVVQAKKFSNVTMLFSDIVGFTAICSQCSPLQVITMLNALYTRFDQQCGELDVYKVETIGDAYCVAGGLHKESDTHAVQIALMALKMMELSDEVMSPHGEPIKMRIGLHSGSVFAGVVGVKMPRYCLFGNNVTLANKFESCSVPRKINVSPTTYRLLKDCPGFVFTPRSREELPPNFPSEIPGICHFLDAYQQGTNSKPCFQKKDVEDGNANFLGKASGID
Experimental: Human embryonic kidney cells (HEK293), endogenously expressing soluble guanylate cyclase (sGC), were used to evaluate the activity of test compounds. Compounds stimulating the sGC receptor should cause an increase in the intracellular concentration of cGMP. HEK 293 cells were seeded in Dulbecco's Modification of Eagle's Medium supplemented with fetal bovine serum (10% final) and L-glutamine (2 mM final) in a 200 μL volume at a density of 1×10^5 cells/well in a poly-D-lysine coated 96 well flat bottom plate and grown overnight at 37° C. Medium was aspirated and cells were washed with 1× Hank's Buffered Saline Salt Solution (200 μL). Cells were then incubated for 15 minutes at 37° C. with 0.5 mM 3-isobutyl-1-methylxanthine (200 μL). Test article and sodium nitroprusside were then added to the assay mixture (2 μL each) and incubated at 37° C. for 10 minutes. After the 10 minute incubation, the assay mixture was aspirated and 0.1M HCl (200 μL) was added to the cells. The plate was incubated at 4° C. for 30 minutes in the 0.1M HCl to stop the reaction and lysed the cells. The plates were then centrifuged at 1,200 g for 5 minutes at room temperature. Supernatants were collected and transferred to a new flat bottom 96 well plate for analysis. Vehicle controls were carried out using DMSO (1%). A known sGC stimulator, BAY 41-2272, was used as the positive control. Samples were diluted with an equal volume of 1 M Ammonium Acetate (pH 7) to neutralize samples for better chromatography. A 2× cGMP standard curve was prepared in 0.1 M HCl and then diluted with an equal volume of 1 M Ammonium Acetate, with the following final concentrations in nM: 1024, 512, 256, 128, 64, 32, 16, 8, 4, 2, 1. cGMP concentrations were determined from each sample using the LC/MS conditions (Table 2 below) and calculated standard curve. EC50 values were calculated from concentration-response curves generated with GraphPad Prism Software.

[3] = top of concentration-response curve not fitted to 100%, read-out: sGC_HEK_LCMS uEC50 (nM) Binned (unconstrained)
[4] = constrained fit, read-out: sGC_HEK_LCMS cEC50 (nM) Binned (constrained)

## Nc1nc(-c2nn(Cc3ccccc3F)c3ncccc23)ncc1C1CC1 [BAY 41-2272]
[1]
  effect on mean arterial pressure: without significant effect on mean arterial pressure
  pulmonary vasodilation: dose dependent pulmonary vasodilation
  transpulmonary cGMP release: increased transpulmonary cGMP release

## Nc1nc(-c2nn(Cc3ccccc3F)c3ncccc23)nc(N)c1N1CCOCC1 [BAY 41-8543]
[1]; combination with inhaled nitric oxide
  pulmonary vasodilation induced by iNO after inhaling microparticles: augmented
[1]
  effect on mean arterial pressure: without significant effect on mean arterial pressure
  pulmonary vasodilation: dose dependent pulmonary vasodilation
  transpulmonary cGMP release: increased transpulmonary cGMP release
  systemic arterial oxygenation: increased systemic arterial oxygenation

## O=C(O)CCCCN(CCc1ccccc1OCc1ccc(CCc2ccccc2)cc1)Cc1ccc(C(=O)O)cc1 [BAY 58-2667]
[1]; after intravenous ODQ
  pulmonary vasodilation and transpulmonary cGMP release after ODQ treatment: greatly enhanced
[1]
  effect on mean arterial pressure: without significant effect on mean arterial pressure
  pulmonary vasodilation: dose dependent pulmonary vasodilation
  transpulmonary cGMP release: increased transpulmonary cGMP release
  systemic arterial oxygenation: increased systemic arterial oxygenation

## CC(C)(C)OC(=O)N1CCCC1COc1nc(-c2cc(-c3ccon3)n(Cc3ccccc3F)n2)ncc1F (stereo not drawn) [Compound I-4]
[2]; [3]
  EC50: 1000 to 5000 nM

## Fc1ccccc1Cn1nc(-c2ncc(F)c(OC3CCNC3)n2)cc1-c1ccon1 (stereo not drawn) [Compound I-5]
[2]; [4]
  EC50: 1000 to 5000 nM

## COC(=O)COc1nc(-c2cc(-c3ccon3)n(Cc3ccccc3F)n2)ncc1F [Compound I-7]
[2]; [3]
  EC50: 1000 to 5000 nM

## COC(=O)C1(Oc2nc(-c3cc(-c4ccon4)n(Cc4ccccc4F)n3)ncc2F)CC1 [Compound I-8]
[2]; [3]
  EC50: 1000 to 5000 nM

## O=C(COc1nc(-c2cc(-c3ccon3)n(Cc3ccccc3F)n2)ncc1F)N1CCOCC1 [Compound I-11]
[2]; [4]
  EC50: 1000 to 5000 nM

## Fc1ccccc1Cn1nc(-c2ncc(F)c(OC3CCNCC3)n2)cc1-c1ccon1 [Compound I-13]
[2]; [3]
  EC50: ≥ 5000 nM

## Fc1ccccc1Cn1nc(-c2ncc(F)c(OC3CNC3)n2)cc1-c1ccon1 [Compound I-14]
[2]; [3]
  EC50: 1000 to 5000 nM

## Fc1ccccc1Cn1nc(-c2ncc(F)c(OC3CCOC3)n2)cc1-c1ccon1 (stereo not drawn) [Compound I-15]
[2]; [3]
  EC50: 100 to 1000 nM

## Fc1ccccc1Cn1nc(-c2ncc(F)c(OCC(F)(F)c3ccccn3)n2)cc1-c1ccon1 [Compound I-17]
[2]; [3]
  EC50: 100 to 1000 nM

## CS(=O)(=O)CCCOc1nc(-c2cc(-c3ccon3)n(Cc3ccccc3F)n2)ncc1F [Compound I-18]
[2]; [4]
  EC50: 1000 to 5000 nM

## CS(=O)(=O)N1CCCC(Oc2nc(-c3cc(-c4ccon4)n(Cc4ccccc4F)n3)ncc2F)C1 (stereo not drawn) [Compound I-21]
[2]; [3]
  EC50: 1000 to 5000 nM

## COC(=O)c1ccccc1C#Cc1nc(-c2cc(-c3ccon3)n(Cc3ccccc3F)n2)ncc1F [Compound I-23]
[2]; [3]
  EC50: 1000 to 5000 nM

## O=C1O/C(=C\c2nc(-c3cc(-c4ccon4)n(Cc4ccccc4F)n3)ncc2F)c2ccccc21 [Compound I-26]
[2]; [3]
  EC50: 1000 to 5000 nM

## O=C(O)c1ccccc1C(=O)Cc1nc(-c2cc(-c3ccon3)n(Cc3ccccc3F)n2)ncc1F [Compound I-27]
[2]; [3]
  EC50: 1000 to 5000 nM
